Reference: patent publication US12262710B2, “Fungicidal compounds” (SYNGENTA CROP PROTECTION AG, priority 2019, dated 2025)

Columns and labels:
[1] = system: Pyricularia oryzae; assay: whole plant or invertebrate; type: in vivo; conditions: foliar, 120 h, read-out: control of Pyricularia oryzae
[2] = system: Phakopsora pachyrhizi; assay: Phakopsora pachyrhizi (soybean rust), soybean leaf disks, preventive; type: in vivo; conditions: foliar, 288 h, approx. 12 dpi, compared to untreated control
Procedure: (§1) Soybean leaf disks are placed on agar in multiwell plates (24-well format) and sprayed with test solutions. After drying, the leaf disks are inoculated with a spore suspension of the fungus. After appropriate incubation the activity of a compound is assessed approx. 12 dpi (days after inoculation) as preventive fungicidal activity.

[3] = system: Puccinia recondita f. sp. tritici; assay: Puccinia recondita (brown rust), preventative, wheat leaf segments; type: in vivo; conditions: foliar, 192 h, 8 dpi, compared to untreated control
Procedure: as §1, with “Wheat” for “Soybean”, “segments” for “disks”, “8” for “approx. 12”, “preventative” for “preventive”

[4] = system: Monographella nivalis; assay: Monographella nivalis syn. Microdochium nivale (snow mould, foot rot of cereals), liquid culture growth inhibition; type: cell-based; conditions: nutrient broth (PDB), 72 hrs, photometric at 620 nm, compared to untreated control
Procedure: Conidia of the fungus from cryogenic storage were directly mixed into nutrient broth (PDB potato dextrose broth). A DMSO solution of the test compounds was placed into a microtiter plate (96-well format) and the nutrient broth containing the fungal spores was added to it. The test plates were incubated at 24° C. and the inhibition of growth was determined photometrically after 72 hrs at 620 nm. […] Cercospora arachidicola (Brown Leaf Spot of Peanut): […]

[5] = system: Glomerella lagenarium; assay: Glomerella lagenarium syn. Colletotrichum lagenarium (anthracnose of cucurbits), liquid culture growth inhibition; type: cell-based; conditions: Colletotrichum orbiculare, nutrient broth (PDB), 72 hrs, photometric at 620 nm, compared to untreated control
Procedure: Glomerella lagenarium Syn. Colletotrichum lagenarium (Anthracnose of Cucurbits): Conidia of the fungus from cryogenic storage were directly mixed into nutrient broth (PDB potato dextrose broth). A DMSO solution of the test compounds was placed into a microtiter plate (96-well format) and the nutrient broth containing the fungal spores was added to it. The test plates were incubated at 24° C. and the inhibition of growth was determined photometrically after 72 hrs at 620 nm. […]

[6] = system: Plasmopara viticola; assay: Plasmopara viticola (downy mildew of grapevine), grape vine leaf disks, preventive; type: in vivo; conditions: foliar, 168 h, 7 dpi, compared to untreated control
Procedure: as §1, with “Grape vine” for “Soybean”, “7” for “approx. 12”

[7] = system: Puccinia recondita f. sp. tritici; assay: Puccinia recondita (brown rust), curative, wheat leaf segments; type: in vivo; conditions: foliar, 192 h, sprayed 1 day after inoculation, 8 dpi, compared to untreated control
Procedure: Wheat leaf segments are placed on agar in multiwell plates (24-well format). The leaf segments are inoculated with a spore suspension of the fungus and sprayed with test solutions 1 day after inoculation. After appropriate incubation the activity of a compound is assessed 8 dpi (days after inoculation) as curative fungicidal activity.

[8] = system: Erysiphe graminis f. sp. tritici; assay: Erysiphe graminis f. sp. tritici (wheat powdery mildew), wheat leaf segments, preventive; type: in vivo; conditions: Blumeria graminis, foliar, 168 h, 7 dpi, compared to untreated control
Procedure: Wheat leaf segments are placed on agar in multiwell plates (24-well format) and sprayed with test solutions. After drying, the leaf disks are inoculated with spores of the fungus. After appropriate incubation the activity of a compound is assessed 7 dpi (days post inoculation) as preventive fungicidal activity.

[9] = system: Mycosphaerella arachidis; assay: Mycosphaerella arachidis syn. Cercospora arachidicola (brown leaf spot of peanut), liquid culture growth inhibition; type: cell-based; conditions: nutrient broth (PDB), approximately 5-6 days, photometric at 620 nm, compared to untreated control
Procedure: Conidia of the fungus from cryogenic storage were directly mixed into nutrient broth (PDB potato dextrose broth). A DMSO solution of the test compounds was placed into a microtiter plate (96-well format) and the nutrient broth containing the fungal spores was added to it. The test plates were incubated at 24° C. and the inhibition of growth was determined photometrically after approximately 5-6 […] at 620 nm.

[10] = system: Alternaria solani; assay: Alternaria solani (early blight of tomatoes), tomato leaf disks; type: in vivo; conditions: foliar, inoculated 2 days after application, compared to untreated control
Procedure: Alternaria solani (Early Blight of Tomatoes) Tomato leaf disks are placed on agar in multiwell plates (24-well format) and sprayed with the formulated test compound diluted in water. The leaf disks are inoculated with a spore suspension of the fungus 2 days after application. The inoculated leaf disks are incubated at 23° C./21° C.

[11] = system: Phytophthora infestans; assay: whole plant or invertebrate; type: in vivo; conditions: in Solanum lycopersicum, foliar, 96 h, read-out: control of Phytophthora infestans

SMILES | pest or weed control at 200 ppm [1] [%] | pest or weed control at 60 ppm [2] [%] | pest or weed control at 200 ppm [3] [%] | inhibition of growth at 20 ppm [4] [%] | inhibition of growth at 20 ppm [5] [%] | pest or weed control at 200 ppm [6] [%] | pest or weed control at 200 ppm [7] [%] | pest or weed control at 200 ppm [8] [%] | inhibition of growth at 20 ppm [9] [%] | pest or weed control at 200 ppm [10] [%] | pest or weed control at 200 ppm [11] [%]
CCON=C1CCC(c2ccc(C)c(O/C(=C\OC)C(=O)OC)c2)CC1 (stereo not shown) [E.21, methyl (Z)-2-[5-(4-ethoxyiminocyclohexyl)-2-methyl-phenoxy]-3-methoxy-prop-2-enoate] | ≥ 80 | ≥ 70 | ≥ 80 | ≥ 80 | ≥ 80 | ≥ 80 | ≥ 80 | ≥ 80 | ≥ 80 | – | –
CO/C=C(\Oc1cc(C2CCC(=NOC)CC2)ccc1C)C(=O)OC (stereo not shown) [E.20, methyl (Z)-3-methoxy-2-[5-(4-methoxyimino-cyclohexyl)-2-methyl-phenoxy]prop-2-enoate] | ≥ 80 | ≥ 70 | ≥ 80 | ≥ 80 | ≥ 80 | ≥ 80 | ≥ 80 | ≥ 80 | ≥ 80 | ≥ 80 | –
CO/C=C(\Oc1cc(C2=CC(C)(C)CCC2=O)ccc1C)C(=O)OC [F.1, methyl (Z)-2-[5-(3,3-dimethyl-6-oxo-cyclohexen-1-yl)-2-methyl-phenoxy]-3-methoxy-prop-2-enoate] | ≥ 80 | – | ≥ 80 | – | ≥ 80 | ≥ 80 | – | ≥ 80 | – | ≥ 80 | –
CO/C=C(\Oc1cc(C2CCC(C(F)F)CC2)ccc1C)C(=O)OC (stereo not shown) [E.22, methyl (Z)-2-[5-[4-(difluoromethyl)cyclohexyl]-2-methyl-phenoxy]-3-methoxy-prop-2-enoate] | – | – | ≥ 80 | ≥ 80 | ≥ 80 | ≥ 80 | – | ≥ 80 | ≥ 80 | ≥ 80 | ≥ 80
CO/C=C(\Oc1cc(C2CCC(C)(C)CC2)ccc1C)C(=O)OC [E.2, methyl (Z)-2-[5-(4,4-dimethylcyclohexyl)-2-methyl-phenoxy]-3-methoxy-prop-2-enoate] | – | – | ≥ 80 | ≥ 80 | – | ≥ 80 | – | ≥ 80 | ≥ 80 | – | ≥ 80
CO/C=C(\Oc1cc(C2CCC2)ccc1C)C(=O)OC [E.12, methyl (Z)-2-(5-cyclobuty1-2-methyl-phenoxy)-3-methoxy-prop-2-enoate] | ≥ 80 | ≥ 70 | ≥ 80 | ≥ 80 | ≥ 80 | ≥ 80 | ≥ 80 | ≥ 80 | ≥ 80 | – | –
CO/C=C(\Oc1cc(C2=CCC(F)(F)CC2)ccc1C)C(=O)OC [F.3, methyl (Z)-2-[5-(4,4-difluorocyclohexen-1-yl)-2-methyl-phenoxy]-3-methoxy-prop-2-enoate] | – | ≥ 70 | ≥ 80 | ≥ 80 | ≥ 80 | ≥ 80 | – | ≥ 80 | ≥ 80 | – | –
CO/C=C(\Oc1cc(C2CCC(OC(F)F)CC2)ccc1C)C(=O)OC (stereo not shown) [E.23, methyl (Z)-2-[5-[4-(difluoromethoxy)cyclohexyl]-2-methyl-phenoxy]-3-methoxy-prop-2-enoate] | ≥ 80 | – | ≥ 80 | ≥ 80 | ≥ 80 | ≥ 80 | – | ≥ 80 | ≥ 80 | ≥ 80 | –
CO/C=C(\Oc1cc(C2=CCCC2)ccc1C)C(=O)OC [F.4, methyl (Z)-2-[5-(cyclopenten-l-yI)-2-methyl-phenoxy]-3-methoxy-prop-2-enoate] | – | ≥ 70 | ≥ 80 | ≥ 80 | ≥ 80 | ≥ 80 | – | ≥ 80 | ≥ 80 | – | –
CO/C=C(\Oc1cc(C2CCCCC2)ccc1Cl)C(=O)OC [E.9, methyl (Z)-2-(2-chloro-5-cyclohexyl-phenoxy)-3-methoxy-prop-2-enoate] | – | – | ≥ 80 | ≥ 80 | ≥ 80 | ≥ 80 | – | ≥ 80 | ≥ 80 | – | ≥ 80
CO/C=C(\Oc1cc(C2CC(C)(C)CCC2=O)ccc1C)C(=O)OC (stereo not shown) [E.5, methyl (Z)-2-[5-(5,5-dimethyl-2-oxo-cyclohexyl)-2-methyl-phenoxy]-3-methoxy-prop-2-enoate] | – | – | ≥ 80 | – | – | ≥ 80 | – | ≥ 80 | – | – | ≥ 80
CO/C=C(\Oc1cc(C2=CCCCC2)c(F)cc1C)C(=O)OC [F.6, methyl (Z)-2-[5-(cyclohexen-1-yl)-4-fluoro-2-methyl-phenoxy]-3-methoxy-prop-2-enoate] | – | ≥ 70 | ≥ 80 | ≥ 80 | ≥ 80 | ≥ 80 | ≥ 80 | ≥ 80 | ≥ 80 | – | –
CO/C=C(\Oc1cc(C2=CCCCC2)ccc1C)C(=O)OC [F.2, methyl (Z)-2-[5-(cyclohexen-1-yl)-2-methyl-phenoxy]-3-methoxy-prop-2-enoate] | – | ≥ 70 | ≥ 80 | – | ≥ 80 | ≥ 80 | ≥ 80 | ≥ 80 | – | – | –
CO/C=C(\Oc1cc(C2=CCC(C(F)F)CC2)ccc1C)C(=O)OC (stereo not shown) [F.7, methyl (Z)-2-[5-[4-(difluoromethyl)cyclohexen-1-yl]-2-methyl-phenoxy]-3-methoxy-prop-2-enoate] | – | – | ≥ 80 | ≥ 80 | ≥ 80 | ≥ 80 | ≥ 80 | ≥ 80 | ≥ 80 | ≥ 80 | –
CO/C=C(\Oc1cc(C2CC2C2CC2)ccc1C)C(=O)OC (stereo not shown) [E.7, methyl (Z)-2-[5-(2-cyclopropylcyclopropyl)-2-methyl-phenoxy]-3-methoxy-prop-2-enoate] | ≥ 80 | – | ≥ 80 | ≥ 80 | ≥ 80 | ≥ 80 | ≥ 80 | ≥ 80 | ≥ 80 | – | ≥ 80
